Data: US20250026741A1, “INHIBITORS OF THE ONCOGENIC SHP2 PHOSPHATASE AND USES THEREOF” (Sanford Burnham Prebys Medical Discovery Institute, priority 2021, published 2025)
pIC50: −log10 of the molar value.

Legend:
[1] = target: full-length SHP2-E76K oncogenic mutant (Homo sapiens (Human), UniProt Q06124, E76K); assay: DiFMUP fluorescence intensity phosphatase inhibition assay, SHP2-E76K; assay type: biochemical; details: DiFMUP at Km (20 μM), 10-point dose-response; read-out: SHP2-E76K IC50
Source text: (§1) To test the synthesized compounds for their potential to inhibit SHP2 activity, a fluorescence intensity-based assay using 6,8-difluoro-4-methylumbelliferyl phosphate (DiFMUP) as the substrate was adapted for three recombinant SHP2 constructs: 1) the SHP2 catalytic domain (SHP2cat; residues 248-527), 2) the full-length SHP2-E76K oncogenic mutant, and 3) the full-length SHP2 wild-type (SHP2-WT). The recombinant SHP2 proteins were expressed and purified. A dually phosphorylated peptide derived from the insulin receptor substrate 1 (IRS-1) served as a surrogate binding protein and was used to activate SHP2-WT. […] Michaelis-Menten experiments to determine the DiFMUP Michaelis-Menten constant (Kmn) for each SHP2 construct were performed and yielded the following values: SHP2-WT, Km=60 μM; SHP2-E76K, Km=20 μM; SHP2cat, Km=20 μM. Relative maximum rates (Vmax) of the DiFMUP reactions were as follows: SHP2-WT, Vmax=871 AFU/min; SHP2-E76K, Vmax, =2730 AFU/min; SHP2cat, Vmax=2912 AFU/min. IC50 values for each compound were determined from initial rates in 10-point dose-response assays using DiFMUP at a concentration corresponding to its Km value for the respective SHP2 construct.
(§2) SHP2 inhibitors were tested at room temperature (RT) in a 384-well plate format standard phosphatase fluorescence intensity assay using DiFMUP (Invitrogen/Thermo Fisher Scientific, Carlsbad, CA) as a substrate and a total reaction volume of 25 μL. SHP2 inhibitors or vehicle (DMSO) were spotted in triplicate into a black Greiner FLUOTRAC™ 200 384-well microplate (#781076, Greiner) for a 10-point dose-response assay using an Echo®555 Liquid Handler (Labcyte, Inc., San Jose, CA). PTP working solutions were prepared at a 0.625 nM concentration (for a final concentration of 0.5 nM) in buffer containing 50 mM Bis-Tris pH 6.0, 50 mM NaCl, 5 mM DTT, and 0.01% Tween® 20. Prior to the assay, a dually phosphorylated insulin receptor substrate 1 (IRS-1) peptide [625 nM (500 nMfinal) (30)] was added to full-length WT SHP2 working solutions and incubated for 20 min. DiFMUP working solutions at 5× final concentration were prepared in 50 mM Bis-Tris pH 6.0, 50 mMNaCl, and 0.01% Tween 20. 20 μL of PTP working solution was dispensed into the microplate and incubated with inhibitor for 20 min at RT. […] The reaction was initiated by addition of 5 μL DiFMUP working solutions. Fluorescence intensity was measured in kinetic mode (every minute for 7 or 10 min) using a Tecan Spark® Multimode Microplate Reader (Tecan, Groedig, Austria) with an excitation wavelength of 360 nm and an emission wavelength of 460 nm. The initial rates were determined from the linear progression curves of the PTP reaction. The nonenzymatic hydrolysis of the substrate was corrected by using a control without addition of enzyme. IC50 values were calculated from the corrected initial rates by nonlinear regression using the program GraphPad Prism (GraphPad Software, Inc., San Diego, CA) Version 8. Dose-response inhibition assays of SHP2cat using the substrate OMFP were performed similarly as described above for DiFMUP. OMFP was used at a concentration corresponding to its Km value for SHP2cat (50 μM final). Fluorescence intensity was measured in kinetic mode (every minute for 10 min) using a Tecan Spark Multimode Microplate Reader with an excitation wavelength of 485 nm and an emission wavelength of 535 nm. Initial rates were determined and IC50 vales calculated as described above.

[2] = target: full-length SHP2 wild-type (SHP2-WT) (Homo sapiens (Human), UniProt Q06124); assay: DiFMUP fluorescence intensity phosphatase inhibition assay, SHP2-WT activated with IRS-1 peptide; assay type: biochemical; details: DiFMUP at Km (60 μM), IRS-1 peptide activated
Source text: as §1, §2

Chain of full-length SHP2-E76K oncogenic mutant (Q06124 whole entry E76K, the tested form may be a part): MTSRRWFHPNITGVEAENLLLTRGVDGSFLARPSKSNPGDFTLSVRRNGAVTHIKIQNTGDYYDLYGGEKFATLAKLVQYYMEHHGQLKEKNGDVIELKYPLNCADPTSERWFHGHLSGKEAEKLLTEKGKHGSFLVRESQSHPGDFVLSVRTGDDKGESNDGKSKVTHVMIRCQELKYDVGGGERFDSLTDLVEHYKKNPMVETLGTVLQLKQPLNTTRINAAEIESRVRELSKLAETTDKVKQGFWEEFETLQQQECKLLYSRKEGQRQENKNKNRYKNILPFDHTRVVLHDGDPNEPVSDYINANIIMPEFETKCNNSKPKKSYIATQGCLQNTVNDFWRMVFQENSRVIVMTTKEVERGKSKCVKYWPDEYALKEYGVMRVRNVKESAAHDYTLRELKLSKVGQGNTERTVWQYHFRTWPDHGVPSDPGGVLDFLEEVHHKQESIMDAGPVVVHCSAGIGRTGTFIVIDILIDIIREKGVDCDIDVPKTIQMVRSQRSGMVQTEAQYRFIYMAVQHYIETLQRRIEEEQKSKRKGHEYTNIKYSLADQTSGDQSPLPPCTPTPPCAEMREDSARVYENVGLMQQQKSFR

Row | SMILES | pIC50 [1] | pIC50 [2]
1 | O=C1CCCC/C1=C\c1ccc(-c2ccc(O)c(C(=O)O)c2)o1 [#14, 2-Hydroxy-5-(5-((2-oxocyclohexylidene)methyl)furan-2-yl)benzoic acid] | 4.00 to 4.70 | 4.00 to 4.70
2 | O=C(Nc1ccccc1)c1cccc(-c2ccc(/C=C3\Sc4ccccc4C3=O)o2)c1 [#15, (Z)-3-(5-((3-Oxobenzo[b]thiophen-2(3H)-ylidene)methyl)furan-2-yl)-N-phenylbenzamide] | 4.00 to 4.70 | 4.00 to 4.70
3 | O=C(NCc1ccccc1)c1cccc(-c2ccc(/C=C3\Sc4ccccc4C3=O)o2)c1 [#16, (Z)—N-Benzyl-3-(5-((3-oxobenzo[b]thiophen-2(3H)-ylidene)methyl)furan-2-yl)benzamide] | 4.00 to 4.70 | ≤ 4.00
4 | O=C1/C(=C/c2ccc(-c3ccc(O)cc3)o2)Sc2ccccc21 [#17, (Z)-2-((5-(4-Hydroxyphenyl)furan-2-yl)methylene)benzo[b]thiophen-3(2H)-one] | 4.00 to 4.70 | ≤ 4.00
5 | COc1ccc(-c2ccc(/C=C3\Sc4ccccc4C3=O)o2)cc1C(=O)Nc1ccccc1 [#18, (Z)-2-Methoxy-5-(5-((3-oxobenzo[b]thiophen-2(3H)-ylidene)methyl)furan-2-yl)-N-phenylbenzamide] | 4.00 to 4.70 | 4.00 to 4.70
6 | O=C1/C(=C/c2ccc(-c3ccc(O)c(C(=O)N4CCNCC4)c3)o2)Sc2ccccc21 [#19, (Z)-2-((5-(4-Hydroxy-3-(piperazine-1-carbonyl)phenyl)furan-2-yl)methylene)benzo[b]thiophen-3(2H)-one] | 4.00 to 4.70 | ≤ 4.00
7 | O=C(Nc1ccccc1)c1cc(-c2ccco2)ccc1O [#21, 5-(Furan-2-yl)-2-hydroxy-N-phenylbenzamide] | ≤ 4.00 | ≤ 4.00
8 | O=C(NCCO)c1cc(-c2ccc(/C=C3\Sc4ccccc4C3=O)o2)ccc1O [#22, (Z)-2-Hydroxy-N-(2-hydroxyethyl)-5-(5-((3-oxobenzo[b]thiophen-2(3H)-ylidene)methyl)furan-2-yl)benzamide] | ≤ 4.00 | ≤ 4.00
9 | CN1CCN(C(=O)c2cc(-c3ccc(/C=C4\Sc5ccccc5C4=O)o3)ccc2O)CC1 [#23, (Z)-2-((5-(4-Hydroxy-3-(4-methylpiperazine-1-carbonyl)phenyl)furan-2-yl)methylene)benzo[b]thiophen-3(2H)-one] | ≤ 4.00 | ≤ 4.00
10 | O=C(Nc1ccccc1)c1cc(-c2ccc(/C=C3\Sc4ccccc4C3=O)o2)ccc1F [#24, (Z)-2-Fluoro-5-(5-((3-oxobenzo[b]thiophen-2(3H)-ylidene)methyl)furan-2-yl)-N-phenylbenzamide] | ≤ 4.00 | ≤ 4.00
11 | O=C1/C(=C/c2ccc(-c3ccccc3)o2)Sc2ccccc21 [#25, (Z)-2-((5-phenylfuran-2-yl)methylene)benzo[b]thiophen-3(2H)-one] | ≤ 4.00 | ≤ 4.00
12 | O=C(O)c1cc(-c2ccc(/C=C3\Sc4ccccc4C3=O)o2)ccc1F [#32] | 4.70 to 6.00 | 4.00 to 4.70

Now from value to compound:

Row | pIC50 [1] | pIC50 [2] | SMILES
13 | 4.70 to 6.00 | 4.00 to 4.70 | CC(C)NC(=O)c1cc(-c2ccc(/C=C3\Sc4ccccc4C3=O)o2)ccc1O [#13, (Z)-2-Hydroxy-N-isopropyl-5-(5-((3-oxobenzo[b]thiophen-2(3H)-ylidene)methyl)furan-2-yl)benzamide]
14 | 4.70 to 6.00 | 4.70 to 6.00 | CC(C)NC(=O)c1cc(-c2ccc(/C=C3\Oc4ccccc4C3=O)o2)ccc1O [#26]
15 | 4.70 to 6.00 | 4.70 to 6.00 | C/C=C1\CC/C(=C\c2ccc(-c3ccc(O)c(C(=O)O)c3)o2)C1=O [#27]
16 | 4.70 to 6.00 | 4.70 to 6.00 | O=C(O)c1ccc(-c2ccc(/C=C3\Sc4ccccc4C3=O)o2)cc1 [#28]
17 | 4.70 to 6.00 | 4.00 to 4.70 | O=C(Nc1ccccc1)c1cc(F)cc(-c2ccc(/C=C3\Sc4ccccc4C3=O)o2)c1 [#29]
18 | 4.70 to 6.00 | 4.70 to 6.00 | O=C(O)c1cccc(-c2cccc(/C=C3\Sc4ccccc4C3=O)c2)c1 [#30]
19 | 4.70 to 6.00 | 4.70 to 6.00 | O=C(O)c1cccc(-c2ccc(/C=C3\Sc4ccccc4C3=O)o2)c1 [#31]
